EP2373670B1, “NOVEL AMINO SUBSTITUTED C-GLYCOSIDE DERIVATIVES AND USE THEREOF AS COSMETIC” (L'Oréal, priority 2008, dated 2010)

Legend:
Assay type in all cases: cell-based
[1] = test system: fibroblastes dermiques humains normaux; experiment: Synthesis of sulfated glycosaminoglycans (radioactive label incorporation) in fibroblast cultures; conditions: fibroblasts, second experiment, n=2; for activity at 100 µM / activity at 1000 µM: Fibroblast, control = 100, read-out: % (synthèse des glycosaminoglycanes par rapport au témoin)
kératinocytes [2] = experiment: Synthesis of sulfated glycosaminoglycans (radioactive label incorporation) in keratinocyte cultures; conditions: keratinocytes, second experiment, n=2
kératinocytes [3] = experiment: as above; conditions: keratinocytes, n=3
From the text: (§1) Etude de l'effet de dérivés C-glycosides sur la synthèse des glycosaminoglycannes sulfatés sur fibroblastes et sur kératinocytes : • L'étude est faite par mesure de l'incorporation de glucosamine radioactive dans la matrice néosynthétisée par des cultures de fibroblastes dermiques humains normaux ou par des kératinocytes. L'incorporation de glucosamine radioactive indique une néosynthèse spécifique de glycosaminoglycannes via une incorporation de la forme acétylée de cette glucosamine.
Les cultures de kératinocytes sont effectuées en milieu Keratinocyte-SFM vendu par la société Gibco , en présence d'EGF (Epidermal Growth Factor) (0,25 ng/ml), d'extrait pituitaire (25 µg/ml) et de gentamycine (25 µg/ml).
(§2) Les fibroblastes et les kératinocytes ont été cultivés en plaques de 96 puits. A confluence, le milieu de culture a été remplacé par du milieu de culture adéquat contenant ou non (témoin) le composé à tester ou la référence, puis les cellules ont été incubées pendant 48 heures. Le marqueur radioactif 35 S-sulfate a été ajouté (40 µCi final) et les cellules ont été incubées pendant 24 heures supplémentaires. Toutes les conditions ont été réalisées 3 fois.
(§3) Les glycosaminoglycanes de la matrice extracellulaire ont été extraits avec un volume tampon chaotropique (Tris/HCl 50 mM, guanidine 4 M, EDTA 5 mM, pH 8,0). Les GAGs sulfatés ont été purifiés par chromatographie d'échanges d'ions : absorption des molécules anioniques sur billes de Q-Sépahrose dans des conditions de forte stringence, désorption des molécules peu et moyennement anioniques avec uns solution urée 6 M NaCl […], puis lavages. La radioactivité incorporée dans les molécules […] restées sur le support (GAGs majoritairement) a été mesurée par scintillation liquide. Les résultats sont évalués par apport à un témoin constitué par des cellules n'ayant pas été traitées avec un composé de formule (I). Un témoin positif (TGFβ à 10 ng/ml) connu pour stimuler la synthèse des GAGs est introduit dans le test effectéu sur fibroblastes comme référence positive. Un témoin positif (CaCl2 à 1,4 mM) connu pour stimuler la synthèse des GAGs est introduit dans le test effectué sur kératinocytes comme référence positive.
(§4) Les résultats sont exprimés en pourcentage de variation de la synthèse des glycosaminoglycanes par rapport au témoin.
(§5) On a effectué 3 essais pour le composé testé.
(§6) Les comparaisons des résultats obtenus pour un composé testé ont été réalisés à l'aide du test de Student.
(§7) L'écart type de la moyenne (esm) a été calculé selon la relation suivante : esm = écart type/((n))^(1/2) [formula] • n étant le nombre d'essais effectués.
(§8) Les valeurs mesurées sont données en coups par minute (cpm) • n : nombre d'essais effectués • p : intervalle de confiance • esm : écart type de la moyenne

[4] = test system: fibroblastes dermiques humains normaux; experiment: Synthesis of sulfated glycosaminoglycans (radioactive label incorporation) in fibroblast cultures; conditions: for augmenter la synthèse des GAGs sulfatés: summary in words of the results on fibroblasts and keratinocytes
From the text: as §1
Les cultures de fibroblastes sont effectuées selon les méthodes classiques de culture cellulaire, à savoir en milieu DMEM vendu par la société Gibco, en présence de L-glutamine (2 mM), de pénicilline (50 Ul/ml) et de 10% de sérum de veau foetal (Gibco).
as §2, §3, §4, §5, §6, §7, §8

[5] = Keratinocyte, 0,1 mM, control = 100, read-out: % (synthèse des glycosaminoglycanes par rapport au témoin)
[6] = Keratinocyte, 1 mM, control = 100, read-out: % (synthèse des glycosaminoglycanes par rapport au témoin)

Row | SMILES | activity at 100 µM ([1]; 0,1 mM) [%] | activity at 1000 µM ([1]; 1 mM) [%] | Valeur moyenne ([1]; 0,1 mM) [cpm] | Valeur moyenne ([1]; 1 mM) [cpm] | activity at 100 µM (kératinocytes [2]; [5]) [%] | activity at 1000 µM (kératinocytes [2]; [6]) [%] | Valeur moyenne (kératinocytes [2]; 0,1 mM) [cpm] | Valeur moyenne (kératinocytes [2]; 1 mM) [cpm] | augmenter la synthèse des GAGs sulfatés [4] | other results
1 | CC(C[C@@H]1OC[C@@H](O)[C@H](O)[C@H]1O)NCCCO (stereo partly drawn) [1-[2-(3-hydroxy-propylamino)-propyl]-C-β-D-xylopyranose] | 113 | 121 | 2856 | 3039 | 99 | 145 | 12660 | 18691 | – | –
2 | CNC(C)C[C@@H]1OC[C@@H](O)[C@H](O)[C@H]1O (stereo partly drawn) [1-[2-(méthylamino)-propyl]-C-β-D-xylopyranose] | 102 | 106 | 2569 | 2659 | 93 | 139 | 11922 | 17916 | – | –
3 | CC(N)C[C@@H]1OC[C@@H](O)[C@H](O)[C@H]1O (stereo partly drawn) [1-[2-amino-propyl]-C-β-D-xylopyranose] | 91 | 139 | 2301 | 3507 | 113 | 225 | 14465 | 28870 | – | –
4 | [Ca+2].[Cl-].[Cl-] [CaCl2, reference compound] | – | – | – | – | – | – | – | – | – | % (synthèse des glycosaminoglycanes par rapport au témoin) (kératinocytes [3]; positive control CaCl2 at 1,4 mM, control = 100, 1400 µM): 117%; Valeur moyenne (kératinocytes [3]; positive control CaCl2 at 1,4 mM): 5273 cpm
5 | CCOC(=O)C(Cc1ccccc1)NC(C)CC1OCC(O)C(O)C1O [Composé de l'exemple 5, chlorhydratede l'ester éthyliquede l'acide 2R-[1-méthyl 2-(C-β-D-xylopyranoside) éthyl]-amino 3-phényl propanoïque] | – | – | – | – | – | – | – | – | très efficaces | activity at 370 µM ([4]; Fibroblast, fibroblasts, 0,37 mM, control = 100, n=3, read-out: % (synthèse des glycosaminoglycanes par rapport au témoin)): 616%; activity at 1110 µM ([4]; Fibroblast, fibroblasts, 1,11 mM, control = 100, n=3, read-out: % (synthèse des glycosaminoglycanes par rapport au témoin)): 605%; Valeur moyenne ([4]; fibroblasts, 0,37 mM, n=3): 14373 cpm; Valeur moyenne ([4]; fibroblasts, 1,11 mM, n=3): 14111 cpm; activity at 66 µM (kératinocytes [3]; Keratinocyte, 66 µM, control = 100, read-out: % (synthèse des glycosaminoglycanes par rapport au témoin)): 438%; activity at 200 µM (kératinocytes [3]; Keratinocyte, 200 µM, control = 100, read-out: % (synthèse des glycosaminoglycanes par rapport au témoin)): 570%; Valeur moyenne (kératinocytes [3]; 66 µM): 21975 cpm; Valeur moyenne (kératinocytes [3]; 200 µM): 29007 cpm
6 | CCCCCCNC(C)C[C@@H]1OC[C@@H](O)[C@H](O)[C@H]1O (some centres unmarked) [Composé de l'exemple 10] | 553 | 595 | 13925 | 14992 | 427 | 255 | 54897 | 32733 | très efficaces | –
7 | CCCNC(C)C[C@@H]1OC[C@@H](O)[C@H](O)[C@H]1O (some centres unmarked) [Composé de l'exemple 11] | 127 | 441 | 3197 | 11109 | – | – | – | – | très efficaces | activity at 0.1 µM (kératinocytes [2]; Keratinocyte, 0,1 µM, control = 100, read-out: % (synthèse des glycosaminoglycanes par rapport au témoin)): 112%; activity at 1 µM (kératinocytes [2]; Keratinocyte, 1 µM, control = 100, read-out: % (synthèse des glycosaminoglycanes par rapport au témoin)): 351%; Valeur moyenne (kératinocytes [2]; 0,1 µM): 14408 cpm; Valeur moyenne (kératinocytes [2]; 1 µM): 45124 cpm
